Data taken from US10253039B2, “Inhibitors of bacterial DNA gyrase with efficacy against gram-negative bacteria” (priority 2014, dated 2019).
≈ marks a conversion by molar mass, not a printed value.

system: E. coli BW25113; experiment: MIC, microdilution in 96-well plates; format: cell-based; conditions: Escherichia coli, BW25113, B: E. coli BW25113; read-out: MIC
Description: (§1) A microdilution method in 96-well plates was used and the MIC protocol established by the Clinical Laboratory Standards Institute was followed. From a growing subculture, a 1:10000 inoculum of each strain in Luria-Bertani media was prepared and aliquoted 100 μL in 4 columns of wells, except for the top row wells, which contained 200 μL of inoculum. A solution of gyramide C2 was aliquoted into 3 of the wells containing 200 μL and DMSO was added to the 4th well. The liquid in each of wells was mixed with a multi-channel pipet and 100 μL was transferred to the next well and mixed. The 2-fold dilution was continued down the 96-well plate until 100 μL was left, which was discarded. The plates were incubated at 37° C. with shaking for 16-18 hours. The MIC was determined as the lowest concentration that inhibited growth and had no turbidity by visual inspection.
(§2) Minimum inhibitory concentrations of various gyramide compounds against 20 strains of bacteria were determined using the procedure described above.

| SMILES | MIC |
| --- | --- |
| O=S(=O)(N[C@@H]1CCN(Cc2ccc(-c3ccncc3)cc2)C1)c1cccc(C(F)(F)F)c1 [Compound 14] | > 8 µg/mL |
| N#Cc1cc(S(=O)(=O)N[C@@H]2CCN(Cc3ccc(-c4ccccc4)cc3)C2)ccc1Cl [Compound 120] | > 8 µg/mL |
| Cc1c(CN2CC[C@@H](NS(=O)(=O)c3cccc(C(F)(F)F)c3)C2)cnn1-c1ccccc1 [Compound 56] | > 8 µg/mL |
| O=S(=O)(N[C@@H]1CCN(Cc2ccc(-c3ccccc3)cc2)C1)c1cc(Cl)cc(C(F)(F)F)c1 [Compound 110] | > 8 µg/mL |
| O=S(=O)(N[C@@H]1CCN(Cc2ccc(-c3ccccc3Cl)cc2)C1)c1cccc(C(F)(F)F)c1 [Compound 69] | > 8 µg/mL |

system: Edwardsiella tarda; experiment: MIC, microdilution in 96-well plates; format: cell-based; conditions: D: Edwardsiella tarda
Description: as §1, §2

| SMILES | MIC |
| --- | --- |
| O=S(=O)(N[C@@H]1CCN(Cc2ccc(-c3ccncc3)cc2)C1)c1cccc(C(F)(F)F)c1 [Compound 14] | > 8 µg/mL |
| N#Cc1cc(S(=O)(=O)N[C@@H]2CCN(Cc3ccc(-c4ccccc4)cc3)C2)ccc1Cl [Compound 120] | > 8 µg/mL |
| Cc1c(CN2CC[C@@H](NS(=O)(=O)c3cccc(C(F)(F)F)c3)C2)cnn1-c1ccccc1 [Compound 56] | > 8 µg/mL |
| O=S(=O)(N[C@@H]1CCN(Cc2ccc(-c3ccccc3)cc2)C1)c1cc(Cl)cc(C(F)(F)F)c1 [Compound 110] | > 8 µg/mL |
| O=S(=O)(N[C@@H]1CCN(Cc2ccc(-c3ccccc3Cl)cc2)C1)c1cccc(C(F)(F)F)c1 [Compound 69] | > 8 µg/mL |

system: Streptococcus agalactiae; experiment: MIC, 20-strain panel; format: cell-based; conditions: not given
Description: as §1, §2

| SMILES | MIC |
| --- | --- |
| O=S(=O)(N[C@@H]1CCN(Cc2ccc(-c3ccncc3)cc2)C1)c1cccc(C(F)(F)F)c1 [Compound 14] | > 8 µg/mL |
| N#Cc1cc(S(=O)(=O)N[C@@H]2CCN(Cc3ccc(-c4ccccc4)cc3)C2)ccc1Cl [Compound 120] | > 8 µg/mL |
| Cc1c(CN2CC[C@@H](NS(=O)(=O)c3cccc(C(F)(F)F)c3)C2)cnn1-c1ccccc1 [Compound 56] | > 8 µg/mL |
| O=S(=O)(N[C@@H]1CCN(Cc2ccc(-c3ccccc3)cc2)C1)c1cc(Cl)cc(C(F)(F)F)c1 [Compound 110] | > 8 µg/mL |
| O=S(=O)(N[C@@H]1CCN(Cc2ccc(-c3ccccc3Cl)cc2)C1)c1cccc(C(F)(F)F)c1 [Compound 69] | > 8 µg/mL |

system: Staphylococcus epidermidis; experiment: MIC, 20-strain panel; format: cell-based; conditions: not given
Description: as §1, §2

| SMILES | MIC |
| --- | --- |
| O=S(=O)(N[C@@H]1CCN(Cc2ccc(-c3ccncc3)cc2)C1)c1cccc(C(F)(F)F)c1 [Compound 14] | > 8 µg/mL |
| N#Cc1cc(S(=O)(=O)N[C@@H]2CCN(Cc3ccc(-c4ccccc4)cc3)C2)ccc1Cl [Compound 120] | > 8 µg/mL |
| Cc1c(CN2CC[C@@H](NS(=O)(=O)c3cccc(C(F)(F)F)c3)C2)cnn1-c1ccccc1 [Compound 56] | > 8 µg/mL |
| O=S(=O)(N[C@@H]1CCN(Cc2ccc(-c3ccccc3)cc2)C1)c1cc(Cl)cc(C(F)(F)F)c1 [Compound 110] | 4 µg/mL (≈ 8.08 µM) |
| O=S(=O)(N[C@@H]1CCN(Cc2ccc(-c3ccccc3Cl)cc2)C1)c1cccc(C(F)(F)F)c1 [Compound 69] | 4 µg/mL (≈ 8.08 µM) |

system: Salmonella enterica subsp. enterica typhimurium; experiment: MIC, 20-strain panel; format: cell-based; conditions: F: Salmonella enterica subsp. enterica Typhimurium
Description: as §1, §2

| SMILES | MIC |
| --- | --- |
| O=S(=O)(N[C@@H]1CCN(Cc2ccc(-c3ccncc3)cc2)C1)c1cccc(C(F)(F)F)c1 [Compound 14] | > 8 µg/mL |
| N#Cc1cc(S(=O)(=O)N[C@@H]2CCN(Cc3ccc(-c4ccccc4)cc3)C2)ccc1Cl [Compound 120] | > 8 µg/mL |
| Cc1c(CN2CC[C@@H](NS(=O)(=O)c3cccc(C(F)(F)F)c3)C2)cnn1-c1ccccc1 [Compound 56] | > 8 µg/mL |
| O=S(=O)(N[C@@H]1CCN(Cc2ccc(-c3ccccc3)cc2)C1)c1cc(Cl)cc(C(F)(F)F)c1 [Compound 110] | > 8 µg/mL |
| O=S(=O)(N[C@@H]1CCN(Cc2ccc(-c3ccccc3Cl)cc2)C1)c1cccc(C(F)(F)F)c1 [Compound 69] | > 8 µg/mL |

system: Streptococcus pyogenes; experiment: MIC, 20-strain panel; format: cell-based; conditions: not given
Description: as §1, §2

| SMILES | MIC |
| --- | --- |
| O=S(=O)(N[C@@H]1CCN(Cc2ccc(-c3ccncc3)cc2)C1)c1cccc(C(F)(F)F)c1 [Compound 14] | > 8 µg/mL |
| N#Cc1cc(S(=O)(=O)N[C@@H]2CCN(Cc3ccc(-c4ccccc4)cc3)C2)ccc1Cl [Compound 120] | > 8 µg/mL |
| Cc1c(CN2CC[C@@H](NS(=O)(=O)c3cccc(C(F)(F)F)c3)C2)cnn1-c1ccccc1 [Compound 56] | > 8 µg/mL |
| O=S(=O)(N[C@@H]1CCN(Cc2ccc(-c3ccccc3)cc2)C1)c1cc(Cl)cc(C(F)(F)F)c1 [Compound 110] | 8 µg/mL (≈ 16.2 µM) |
| O=S(=O)(N[C@@H]1CCN(Cc2ccc(-c3ccccc3Cl)cc2)C1)c1cccc(C(F)(F)F)c1 [Compound 69] | ~8 µg/mL (≈ 16.2 µM) |

system: Staphylococcus saprophyticus subsp. saprophyticus; experiment: MIC, 20-strain panel; format: cell-based; conditions: not given
Description: as §1, §2

| SMILES | MIC |
| --- | --- |
| O=S(=O)(N[C@@H]1CCN(Cc2ccc(-c3ccncc3)cc2)C1)c1cccc(C(F)(F)F)c1 [Compound 14] | > 8 µg/mL |
| N#Cc1cc(S(=O)(=O)N[C@@H]2CCN(Cc3ccc(-c4ccccc4)cc3)C2)ccc1Cl [Compound 120] | > 8 µg/mL |
| Cc1c(CN2CC[C@@H](NS(=O)(=O)c3cccc(C(F)(F)F)c3)C2)cnn1-c1ccccc1 [Compound 56] | > 8 µg/mL |
| O=S(=O)(N[C@@H]1CCN(Cc2ccc(-c3ccccc3)cc2)C1)c1cc(Cl)cc(C(F)(F)F)c1 [Compound 110] | > 8 µg/mL |
| O=S(=O)(N[C@@H]1CCN(Cc2ccc(-c3ccccc3Cl)cc2)C1)c1cccc(C(F)(F)F)c1 [Compound 69] | > 8 µg/mL |

system: E. coli MG1655; experiment: MIC, 20-strain panel; format: cell-based; conditions: Escherichia coli, MG1655, A: E. coli MG1655; read-out: MIC
Description: as §1, §2

| SMILES | MIC |
| --- | --- |
| O=S(=O)(N[C@@H]1CCN(Cc2ccc(-c3ccncc3)cc2)C1)c1cccc(C(F)(F)F)c1 [Compound 14] | > 8 µg/mL |
| N#Cc1cc(S(=O)(=O)N[C@@H]2CCN(Cc3ccc(-c4ccccc4)cc3)C2)ccc1Cl [Compound 120] | > 8 µg/mL |
| Cc1c(CN2CC[C@@H](NS(=O)(=O)c3cccc(C(F)(F)F)c3)C2)cnn1-c1ccccc1 [Compound 56] | > 8 µg/mL |
| O=S(=O)(N[C@@H]1CCN(Cc2ccc(-c3ccccc3)cc2)C1)c1cc(Cl)cc(C(F)(F)F)c1 [Compound 110] | > 8 µg/mL |
| O=S(=O)(N[C@@H]1CCN(Cc2ccc(-c3ccccc3Cl)cc2)C1)c1cccc(C(F)(F)F)c1 [Compound 69] | > 8 µg/mL |

system: Shigella flexneri; experiment: MIC, 20-strain panel; format: cell-based; conditions: G: Shigella flexneri
Description: as §1, §2

| SMILES | MIC |
| --- | --- |
| O=S(=O)(N[C@@H]1CCN(Cc2ccc(-c3ccncc3)cc2)C1)c1cccc(C(F)(F)F)c1 [Compound 14] | > 8 µg/mL |
| N#Cc1cc(S(=O)(=O)N[C@@H]2CCN(Cc3ccc(-c4ccccc4)cc3)C2)ccc1Cl [Compound 120] | > 8 µg/mL |
| Cc1c(CN2CC[C@@H](NS(=O)(=O)c3cccc(C(F)(F)F)c3)C2)cnn1-c1ccccc1 [Compound 56] | > 8 µg/mL |
| O=S(=O)(N[C@@H]1CCN(Cc2ccc(-c3ccccc3)cc2)C1)c1cc(Cl)cc(C(F)(F)F)c1 [Compound 110] | > 8 µg/mL |
| O=S(=O)(N[C@@H]1CCN(Cc2ccc(-c3ccccc3Cl)cc2)C1)c1cccc(C(F)(F)F)c1 [Compound 69] | > 8 µg/mL |

system: E. coli JW5503 (deltolC); experiment: MIC, 20-strain panel; format: cell-based; conditions: Escherichia coli, C: E. coli JW5503 (deltolC)
Description: as §1, §2

| SMILES | MIC |
| --- | --- |
| O=S(=O)(N[C@@H]1CCN(Cc2ccc(-c3ccncc3)cc2)C1)c1cccc(C(F)(F)F)c1 [Compound 14] | 2 µg/mL (≈ 4.33 µM) |
| N#Cc1cc(S(=O)(=O)N[C@@H]2CCN(Cc3ccc(-c4ccccc4)cc3)C2)ccc1Cl [Compound 120] | ~8 µg/mL (≈ 17.7 µM) |
| Cc1c(CN2CC[C@@H](NS(=O)(=O)c3cccc(C(F)(F)F)c3)C2)cnn1-c1ccccc1 [Compound 56] | > 8 µg/mL |
| O=S(=O)(N[C@@H]1CCN(Cc2ccc(-c3ccccc3)cc2)C1)c1cc(Cl)cc(C(F)(F)F)c1 [Compound 110] | > 8 µg/mL |
| O=S(=O)(N[C@@H]1CCN(Cc2ccc(-c3ccccc3Cl)cc2)C1)c1cccc(C(F)(F)F)c1 [Compound 69] | 8 µg/mL (≈ 16.2 µM) |

system: Klebsiella pneumoniae subsp. pneumoniae; experiment: MIC, 20-strain panel; format: cell-based; conditions: E: Klebsiella pneumoniae subsp. pneumoniae
Description: as §1, §2

| SMILES | MIC |
| --- | --- |
| O=S(=O)(N[C@@H]1CCN(Cc2ccc(-c3ccncc3)cc2)C1)c1cccc(C(F)(F)F)c1 [Compound 14] | > 8 µg/mL |
| N#Cc1cc(S(=O)(=O)N[C@@H]2CCN(Cc3ccc(-c4ccccc4)cc3)C2)ccc1Cl [Compound 120] | > 8 µg/mL |
| Cc1c(CN2CC[C@@H](NS(=O)(=O)c3cccc(C(F)(F)F)c3)C2)cnn1-c1ccccc1 [Compound 56] | > 8 µg/mL |
| O=S(=O)(N[C@@H]1CCN(Cc2ccc(-c3ccccc3)cc2)C1)c1cc(Cl)cc(C(F)(F)F)c1 [Compound 110] | > 8 µg/mL |
| O=S(=O)(N[C@@H]1CCN(Cc2ccc(-c3ccccc3Cl)cc2)C1)c1cccc(C(F)(F)F)c1 [Compound 69] | > 8 µg/mL |

system: Staphylococcus aureus subsp. aureus; experiment: MIC, 20-strain panel; format: cell-based; conditions: H: Staphylococcus aureus subsp. aureus, read-out: MIC
Description: as §1, §2

| SMILES | MIC |
| --- | --- |
| O=S(=O)(N[C@@H]1CCN(Cc2ccc(-c3ccncc3)cc2)C1)c1cccc(C(F)(F)F)c1 [Compound 14] | > 8 µg/mL |
| N#Cc1cc(S(=O)(=O)N[C@@H]2CCN(Cc3ccc(-c4ccccc4)cc3)C2)ccc1Cl [Compound 120] | > 8 µg/mL |
| Cc1c(CN2CC[C@@H](NS(=O)(=O)c3cccc(C(F)(F)F)c3)C2)cnn1-c1ccccc1 [Compound 56] | > 8 µg/mL |
| O=S(=O)(N[C@@H]1CCN(Cc2ccc(-c3ccccc3)cc2)C1)c1cc(Cl)cc(C(F)(F)F)c1 [Compound 110] | > 8 µg/mL |
| O=S(=O)(N[C@@H]1CCN(Cc2ccc(-c3ccccc3Cl)cc2)C1)c1cccc(C(F)(F)F)c1 [Compound 69] | > 8 µg/mL |
